From patent US8178506B2, “Oligomeric compounds and compositions for use in modulation of small non-coding RNAs” (Regulus Therapeutics Inc., priority 2003, dated 2012)
In the oligonucleotide strings, read from the 5' end, every base follows the letter of its sugar. An asterisk marks phosphorothioate; unmarked linkages are phosphodiester. Other units and linkages are bracketed, terminal groups are in braces. A string of capitals states the bases alone. e = 2'-O-(2-methoxyethyl) (MOE); [5mC] = 5-methylcytosine

How the values were obtained:
HuVECs = test: Endothelial tube formation assay in HuVECs; details: 75 nM oligomeric compound
aP2 = aP2 mRNA expression in adipocytes (real-time PCR); assay type: cell-based, human; details: for AP2 (mRNA expression): adipocytes, 250 nM oligomeric compound, day nine post-transfection, relative to control (1.0)
PPARγ = PPARγ mRNA expression in adipocytes (real-time PCR); assay type: cell-based, human; details: for PPAR-gamma mRNA: differentiating adipocytes day 10 post-induction, 24 hours after treatment; for PPAR gamma (mRNA expression): adipocytes, 250 nM oligomeric compound, day nine post-transfection, relative to control (1.0)
adipocytes = test: Triglyceride accumulation assay in adipocytes; assay type: cell-based, human; details: for Triglycerides: differentiating adipocytes day 10 post-induction, 24 hours after treatment
HSL = HSL mRNA expression in adipocytes (real-time PCR); assay type: cell-based, human; details: for HSL (mRNA expression): adipocytes, 250 nM oligomeric compound, day nine post-transfection, relative to control (1.0)
[1] = system: BJ, B16-F10, T47D, T47Dp53 and HeLa cells; test: Cell cycle assay (propidium iodide flow cytometry), cell line panel; assay type: cell-based; details: 150 nM oligomeric compound, 4.5 μg/ml LIPOFECTIN, after 72 hours, propidium iodide flow cytometry
Glut4 = Glut4 mRNA expression in adipocytes (real-time PCR); assay type: cell-based, human; details: for Glut4 (mRNA expression): adipocytes, 250 nM oligomeric compound, day nine post-transfection, relative to control (1.0)
[2] = 50 nM, differentiating adipocytes day 10 post-induction, 24 hours after treatment
[3] = 100 nM, differentiating adipocytes day 10 post-induction, 24 hours after treatment
[4] = 200 nM, differentiating adipocytes day 10 post-induction, 24 hours after treatment
[5] = 300 nM, differentiating adipocytes day 10 post-induction, 24 hours after treatment
[6] = Table 20, adipocyte differentiation assay as in Example 13
[7] = adipocytes, 250 nM oligomeric compound, relative to control (1.0), Table 15
[8] = differentiating adipocytes transfected with oligomeric compound

## 327901 (antisense eT*eG*eA*eG*e[5mC]*eT*eA*e[5mC]*eA*eG*eT*eG*e[5mC]*eT*eT*e[5mC]*eA*eT*e[5mC]*eT*e[5mC]*eA) [compound 327901]
HuVECs; Table 57
  % Activity Relative to UTC (tube formation): 48.3%
HuVECs; Table 59
  % Activity Relative to UTC (tube formation): 100.0%
aP2; [2]
  AP2 mRNA: 78.3 % UTC
aP2; [3]
  AP2 mRNA: 64.6 % UTC
aP2; [4]
  AP2 mRNA: 39.0 % UTC
aP2; [5]
  AP2 mRNA: 22.4 % UTC
aP2; [6]
  AP2: 0.42
aP2; Table 15
  AP2 (mRNA expression): 0.42
aP2; Table 16
  AP2 (mRNA expression): 0.47
PPARγ; 50 nM
  PPAR-gamma mRNA: 74.6 % UTC
PPARγ; 100 nM
  PPAR-gamma mRNA: 70.8 % UTC
PPARγ; 200 nM
  PPAR-gamma mRNA: 51.8 % UTC
PPARγ; 300 nM
  PPAR-gamma mRNA: 39.3 % UTC
PPARγ; [6]
  PPAR gamma: 0.30
PPARγ; Table 15
  PPAR gamma (mRNA expression): 0.30
PPARγ; Table 16
  PPAR gamma (mRNA expression): 0.72
adipocytes; 50 nM
  Triglycerides: 85.3 % UTC
adipocytes; 100 nM
  Triglycerides: 68.9 % UTC
adipocytes; 200 nM
  Triglycerides: 34.0 % UTC
adipocytes; 300 nM
  Triglycerides: 23.0 % UTC
adipocytes; [6]
  TG: 0.54
adipocytes; [7]
  TG (triglyceride accumulation): 0.54
adipocytes; adipocytes, 250 nM oligomeric compound, relative to control (1.0), Table 16
  TG (triglyceride accumulation): 0.53
HSL; [2]
  HSL mRNA: 89.5 % UTC
HSL; [3]
  HSL mRNA: 73.5 % UTC
HSL; [4]
  HSL mRNA: 40.2 % UTC
HSL; [5]
  HSL mRNA: 11.9 % UTC
HSL; [6]
  HSL: 0.33
HSL; Table 15
  HSL (mRNA expression): 0.33
HSL; Table 16
  HSL (mRNA expression): 0.47
[1]
  G1 (percentage of cells in phase of the cell cycle): 34.7%
  G2/M (percentage of cells in phase of the cell cycle): 20.3%
  S (percentage of cells in phase of the cell cycle): 44.9%
  SubG1 (percentage of cells in phase of the cell cycle): 12%
  aneuploid (percentage of cells): 13.6%
Glut4; [2]
  GLUT4 mRNA: 74.2 % UTC
Glut4; [3]
  GLUT4 mRNA: 49.7 % UTC
Glut4; [4]
  GLUT4 mRNA: 32.8 % UTC
Glut4; [5]
  GLUT4 mRNA: 17.4 % UTC
Glut4; [6]
  Glut4: 0.19
Glut4; Table 15
  Glut4 (mRNA expression): 0.19
Glut4; Table 16
  Glut4 (mRNA expression): 0.29

## 327878 (antisense e[5mC]*eT*eA*eG*eT*eG*eG*eT*e[5mC]*e[5mC]*eT*eA*eA*eA*e[5mC]*eA*eT*eT*eT*e[5mC]*eA*e[5mC]) [compound 327878]
HuVECs; Table 56
  % Activity Relative to UTC (tube formation): 57.1%
aP2; Table 15
  AP2 (mRNA expression): 0.85
PPARγ; Table 15
  PPAR gamma (mRNA expression): 0.97
adipocytes; [7]
  TG (triglyceride accumulation): 0.65
HSL; Table 15
  HSL (mRNA expression): 0.93
[1]
  G1 (percentage of cells in phase of the cell cycle): 39.1%
  G2/M (percentage of cells in phase of the cell cycle): 20%
  S (percentage of cells in phase of the cell cycle): 40.8%
  SubG1 (percentage of cells in phase of the cell cycle): 17.3%
  aneuploid (percentage of cells): 11.9%
Glut4; Table 15
  Glut4 (mRNA expression): 0.69

## 327951 (antisense e[5mC]*eA*e[5mC]*eA*eA*eA*e[5mC]*e[5mC]*eA*eT*eT*eA*eT*eG*eT*eG*e[5mC]*eT*eG*e[5mC]*eT*eA) [compound 327951]
HuVECs; Table 59
  % Activity Relative to UTC (tube formation): 73.3%
aP2; [8]
  AP2 mRNA: 91 percentage of untreated control (UTC)
PPARγ; [8]
  PPAR gamma mRNA: 84 percentage of untreated control (UTC)
adipocytes; [8]
  TG (triglyceride accumulation): 76 percentage of untreated control (UTC)
HSL; [8]
  HSL mRNA: 100 percentage of untreated control (UTC)
[1]
  G1 (percentage of cells in phase of the cell cycle): 60.9%
  G2/M (percentage of cells in phase of the cell cycle): 14.3%
  S (percentage of cells in phase of the cell cycle): 24.8%
  SubG1 (percentage of cells in phase of the cell cycle): 4.3%
  aneuploid (percentage of cells): 16.7%
Glut4; [8]
  GLUT4 mRNA: 81 percentage of untreated control (UTC)
